Consider 13 molecules from patent EP4644383A1 (Jiangsu Yahong Meditech Co., Ltd., priority 2022, dated 2024).

Molecules are shown by their SMILES. Read-outs that look alike come from different tables or passages of the source.

By IC50 is commonly meant the concentration at which inhibition is half-maximal.

Holding throughout (format): biochemical
One experiment addresses T1, FGFR2 (Homo sapiens, UniProt P21802).
T1 construct: FGFR2's cytoplasmic domain [399-821 (terminal) amino acids]; purchased Carna 08-134
Kind of experiment: FGFR2 kinase activity inhibition assay (LanthaScreen TR-FRET). How it is done:
(§1) FGFR1 kinase activity was measured using Invitrogen LanthaScreen™ assay technology, which utilized fluorescently-labeled peptides and terbium-labeled antibodies to directly measure an amount of the phosphorylated substrate through time-resolved fluorescence energy transfer (TR-FRET). • ① The test compounds were diluted: starting from a concentration of 1 µM, with a buffer solution in a three-fold serial dilution, the buffer solution being composed of 50 mM HEPES, 10 mM MgCl2, 0.01% TritonX-100, 0.01% BSA, 4 mM DTT (pH 7.5), and 1% DMSO; • ② 0.01 nM recombinant human GST fusion protein FGFR1's cytoplasmic domain [398-822 (terminal) amino acids] (Carna: 08-133) was formulated into a 2 × solution, mixed well with the test compounds, and incubated at 23°C for 10 minutes; • ③ 28 nM Fluorescein-Poly GT peptide substrate (Life Technologies: PV3611) and 28 µM ATP were formulated into a 2 × solution, mixed well with the test compounds and enzyme in ②, and incubated at 23°C for 30 minutes; • ④ 10 µL of 2nM Tb-PY20 antibody (Life Technologies: PV3552) and 10 mM EDTA were added to quench the kinase reaction, and incubated at 22°C for 60 minutes. • ⑤ The reaction was measured using a PerkinElmer EnVision multimode plate reader through TR-FRET dual wavelength detection. • 1. The RFU values were copied from the Envision program. • 2. The ratio of RFU 520nm/RFU 495nm was calculated. • 3. The value of the ratio was converted to a percentage inhibition value. % Inhibition = (max-data)/(max-min) × 100 [formula]
(§2) "Min" represents the ratio of the control without enzyme, "max" represents the ratio of the DMSO control, and "data" represents the ratio of the compounds in wells with different concentrations.
(§3) "Top" refers to the maximum response, "Bottom" refers to the minimum response, and "HillSlope" refers to the slope of the curve.
According to the same method as that in the FGFR1 kinase activity inhibition assay, the inhibitory activities against FGFR2, FGFR3 and FGFR4 were tested using FGFR2's cytoplasmic domain [399-821 (terminal) amino acids] (Carna: 08-134), FGFR3's cytoplasmic domain [436-806 (terminal) amino acids] (Carna: 08-135) and FGFR4's cytoplasmic domain [460-802 (terminal) amino acids] (Carna: 08-136), respectively. […]
(In general: Time-resolved FRET reads energy transfer from a long-lived donor to a nearby acceptor.)

A further experiment concerns the target T2, FGFR1 (Homo sapiens, UniProt P11362).
T2 construct: cytoplasmic domain [398-822 (terminal) amino acids]; purchased Carna 08-133
In words: FGFR1 kinase activity inhibition assay (LanthaScreen TR-FRET). The essentials: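 Emission ratio 520 nm/495 nm by TR-FRET after stopping reaction with 10 mM EDTA and 60 min incubation at 22°C. Inhibition normalized between no-enzyme (min) and DMSO (max) controls, then fitted to a four-parameter curve (Top, Bottom, HillSlope).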

A further experiment addresses T3, FGFR3 (Homo sapiens, UniProt P22607).
T3 construct: FGFR3's cytoplasmic domain [436-806 (terminal) amino acids]; purchased Carna 08-135
In words: FGFR3 kinase activity inhibition assay (LanthaScreen TR-FRET). Particulars: for Selectivity (X) FGFR1/FGFR3: ratio of IC50 FGFR1/FGFR3, selectivity towards FGFR3; for Selectivity (X) FGFR2/FGFR3: ratio of IC50 FGFR2/FGFR3, selectivity towards FGFR3; for Selectivity (X) FGFR4/FGFR3: ratio of IC50 FGFR4/FGFR3, selectivity towards FGFR3. The method in brief:
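Read-out is TR-FRET, with the 520 nm/495 nm emission ratio normalised to DMSO (max) and enzyme-free (min) controls. Enzyme was the FGFR3 cytoplasmic domain, residues 436-806. EDTA (10 mM) stopped the reaction, followed by 60 min at 22 °C before reading.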

A further experiment addresses T4, FGFR4 (Homo sapiens, UniProt P22455).
T4 construct: FGFR4's cytoplasmic domain [460-802 (terminal) amino acids]; purchased Carna 08-136
In words: FGFR4 kinase activity inhibition assay (LanthaScreen TR-FRET). The settings on record: FGFR4 kinase, TR-FRET; read-out: IC50 (nM) FGFR4. The procedure:
as §1, §2, §3
According to the same method as that in the FGFR1 kinase activity inhibition assay, the inhibitory activities against FGFR2, FGFR3 and FGFR4 were tested using FGFR2's cytoplasmic domain [399-821 (terminal) amino acids] (Carna: 08-134), FGFR3's cytoplasmic domain [436-806 (terminal) amino acids] (Carna: 08-135) and FGFR4's cytoplasmic domain [460-802 (terminal) amino acids] (Carna: 08-136), respectively. Table 1 reports the kinase activity inhibition results and selectivity towards FGFR3 of each compound.

Setting [1] is: FGFR2 kinase, TR-FRET, read-out: IC50 (nM) FGFR2.
[2] abbreviates: FGFR1 kinase, TR-FRET, read-out: IC50 (nM) FGFR1.
The mark [3] stands for this setting: FGFR3 kinase, TR-FRET, read-out: IC50 (nM) FGFR3.

T4 sequence (P22455 460-802): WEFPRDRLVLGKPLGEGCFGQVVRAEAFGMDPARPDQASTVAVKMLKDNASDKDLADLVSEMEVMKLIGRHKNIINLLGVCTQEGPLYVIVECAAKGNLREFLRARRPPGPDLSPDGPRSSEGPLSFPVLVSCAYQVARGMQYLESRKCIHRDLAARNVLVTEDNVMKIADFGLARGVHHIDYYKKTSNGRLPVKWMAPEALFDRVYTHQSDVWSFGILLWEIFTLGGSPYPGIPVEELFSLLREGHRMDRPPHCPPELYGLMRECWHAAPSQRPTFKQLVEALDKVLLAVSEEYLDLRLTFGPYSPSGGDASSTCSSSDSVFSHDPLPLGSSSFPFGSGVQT
T2 sequence (P11362 398-822): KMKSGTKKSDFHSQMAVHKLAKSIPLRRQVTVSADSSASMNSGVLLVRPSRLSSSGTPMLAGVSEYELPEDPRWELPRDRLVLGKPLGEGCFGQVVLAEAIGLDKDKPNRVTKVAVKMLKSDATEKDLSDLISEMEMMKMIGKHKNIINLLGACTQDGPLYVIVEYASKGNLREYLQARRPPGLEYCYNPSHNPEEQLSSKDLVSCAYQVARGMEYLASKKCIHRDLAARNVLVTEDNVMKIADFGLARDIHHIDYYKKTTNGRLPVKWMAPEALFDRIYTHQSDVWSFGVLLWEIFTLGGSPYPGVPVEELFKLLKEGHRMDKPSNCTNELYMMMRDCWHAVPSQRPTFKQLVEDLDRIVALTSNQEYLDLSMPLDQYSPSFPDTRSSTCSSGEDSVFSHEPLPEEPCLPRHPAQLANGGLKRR
T3 sequence (P22607 436-806): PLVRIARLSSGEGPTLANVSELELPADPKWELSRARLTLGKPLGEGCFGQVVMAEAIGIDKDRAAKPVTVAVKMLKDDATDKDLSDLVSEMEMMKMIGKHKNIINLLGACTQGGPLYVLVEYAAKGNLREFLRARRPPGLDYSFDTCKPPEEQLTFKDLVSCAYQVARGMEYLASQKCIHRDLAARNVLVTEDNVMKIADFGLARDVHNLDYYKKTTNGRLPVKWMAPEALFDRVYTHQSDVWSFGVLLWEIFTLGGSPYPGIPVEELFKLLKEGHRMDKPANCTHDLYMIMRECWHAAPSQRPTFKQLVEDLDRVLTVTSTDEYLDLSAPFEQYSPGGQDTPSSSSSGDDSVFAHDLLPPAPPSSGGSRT
T1 sequence (P21802 399-821): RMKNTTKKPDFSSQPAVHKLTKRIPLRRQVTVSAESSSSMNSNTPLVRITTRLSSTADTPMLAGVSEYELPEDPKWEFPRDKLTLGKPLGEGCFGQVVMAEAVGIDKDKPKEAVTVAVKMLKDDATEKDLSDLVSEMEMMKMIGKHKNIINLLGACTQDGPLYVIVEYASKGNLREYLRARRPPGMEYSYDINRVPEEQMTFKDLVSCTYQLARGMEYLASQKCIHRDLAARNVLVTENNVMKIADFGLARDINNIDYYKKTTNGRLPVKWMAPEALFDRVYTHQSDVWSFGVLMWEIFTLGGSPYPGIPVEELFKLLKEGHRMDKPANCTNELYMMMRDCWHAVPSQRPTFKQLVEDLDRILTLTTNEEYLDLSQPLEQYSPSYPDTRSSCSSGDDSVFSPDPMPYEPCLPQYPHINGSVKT

Molecule `C[C@@H](Oc1ccc2[nH]nc(-c3cnn(C4CCN(C(=O)N(C)C)CC4)c3)c2n1)c1c(Cl)cncc1Cl` [Example 36, (R)-4-(4-(5-(1-(3,5-dichloropyridin-4-yl)ethoxy)-1H-pyrazolo[4,3-b]pyridin-3-yl)-1H-pyrazol-1-yl)-N,N-dimethylpiperidine-1-carboxamide] returned an IC50 on FGFR2 of 10 to 100 nM. At FGFR1, this molecule gave an IC50 of 10 to 100 nM. Also, at FGFR3, the IC50 lay in the range of 1 to 10 nM, the “Selectivity (X) FGFR1/FGFR3” value is given as “A (A represents 1 ≤ multiple X<20)” and the “Selectivity (X) FGFR2/FGFR3” value is listed as “A (A represents 1 ≤ multiple X<20)”.
With `CC(C)N1CCC(n2cc(-c3n[nH]c4ccc(O[C@H](C)c5c(Cl)cncc5Cl)nc34)cn2)CC1` [Example 37, (R)-5-(1-(3,5-dichloropyridin-4-yl)ethoxy)-3-(1-(1-isopropylpiperidin-4-yl)-1H-pyrazol-4-yl)1H-pyrazolo[4,3-b]pyridine], on FGFR2, the IC50 was in the range of 1 to 10 nM. The IC50 on FGFR1 was in the range of 1 to 10 nM. Also, at FGFR3, the IC50 fell in the range of 1 to 10 nM, the “Selectivity (X) FGFR1/FGFR3” value was “A (A represents 1 ≤ multiple X<20)” and the “Selectivity (X) FGFR2/FGFR3” value is given as “A (A represents 1 ≤ multiple X<20)”.
Regarding `C[C@@H](Oc1ccc2[nH]nc(-c3cnn(CCO)c3)c2n1)c1c(Cl)cncc1Cl` [Example 39, (R)-2-(4-(5-(1-(3,5-dichloropyridin-4-yl)ethoxy)-1H-pyrazolo[4,3-b]pyridin-3-yl)-1H-pyrazol-1-yl)ethan-1-ol], the values for the IC50 at FGFR2 (setting [1]), at FGFR1 (setting [2]) and on FGFR3 (setting [3]) were 1 to 10 nM, 10 to 100 nM and 1 to 10 nM, respectively. For the same molecule, the “Selectivity (X) FGFR1/FGFR3” value on FGFR3 is “A (A represents 1 ≤ multiple X<20)”. Further, on FGFR3, the “Selectivity (X) FGFR2/FGFR3” value is recorded as “A (A represents 1 ≤ multiple X<20)”.
On to `C[C@@H](Oc1ccc2[nH]nc(-c3cnn(CC(F)F)c3)c2n1)c1c(Cl)cncc1Cl` [Example 41, (R)-5-(1-(3,5-dichloropyridin-4-yl)ethoxy)-3-(1-(2,2-difluoroethyl)-1H-pyrazol-4-yl)-1H-pyrazolo[4,3-b]pyridine], for which the IC50 at FGFR2 (setting [1]), on FGFR1 (setting [2]) and on FGFR3 (setting [3]) was 10 to 100 nM in each case. For the same molecule, the “Selectivity (X) FGFR1/FGFR3” value on FGFR3 is recorded as “A (A represents 1 ≤ multiple X<20)”. For the same molecule, the “Selectivity (X) FGFR2/FGFR3” value on FGFR3 is on record as “A (A represents 1 ≤ multiple X<20)”.
Regarding `C[C@@H](Oc1ccc2[nH]nc(-c3cnn(C4CC4)c3)c2n1)c1c(Cl)cncc1Cl` [Example 48, (R)-3-(1-cyclopropyl-1H-pyrazol-4-yl)-5-(1-(3,5-dichloropyridin-4-yl)ethoxy)-1H-pyrazino[4,3-b]pyridine], the IC50 on FGFR2 (setting [1]) is 10 to 100 nM; at FGFR1 (setting [2]) it was 10 to 100 nM; at FGFR3 (setting [3]), 1 to 10 nM. For the same molecule, the “Selectivity (X) FGFR1/FGFR3” value at FGFR3 was “A (A represents 1 ≤ multiple X<20)”. The “Selectivity (X) FGFR2/FGFR3” value on FGFR3 is recorded as “A (A represents 1 ≤ multiple X<20)”.
Turning to `CNCCNC(=O)c1ccc2[nH]nc(-c3cnn(C)c3)c2c1` [Example 65, 3-(1-methyl-1H-pyrazol-4-yl)-N-(2-(methylamino)ethyl)-1H-indazole-5-carboxamide], the IC50 was greater than 100 nM on FGFR2 (setting [1]), greater than 100 nM at FGFR1 (setting [2]) and 10 to 100 nM on FGFR3 (setting [3]). Besides, the “Selectivity (X) FGFR1/FGFR3” value on FGFR3 was “B (B represents 20 ≤ multiple X<50)”. Moreover, the “Selectivity (X) FGFR2/FGFR3” value on FGFR3 was “C (C represents 50 ≤ multiple X<100)”.
Consider `CC(Oc1ccc2[nH]nc(-c3cnn(C)c3)c2c1)c1cc(C#N)cc2ncccc12` (centres unmarked) [Example 159, 5-(1-((3-(1-methyl-1H-pyrazol-4-yl)-1H-indazol-5-yl)oxy)ethyl)qu inoline-7-carbonitrile], for which the IC50 at FGFR2 (setting [1]) is 10 to 100 nM; at FGFR1 (setting [2]), greater than 100 nM; on FGFR3 (setting [3]), 1 to 10 nM. Further, the “Selectivity (X) FGFR1/FGFR3” value on FGFR3 is recorded as “B (B represents 20 ≤ multiple X<50)”. Moreover, the “Selectivity (X) FGFR2/FGFR3” value on FGFR3 is “A (A represents 1 ≤ multiple X<20)”.
For `CC(Oc1ccc2[nH]nc(-c3cnn(C4CCN(C#N)CC4)c3)c2c1)c1cccc2nccnc12` (centres unmarked) [Example 162, 4-(4-(5-(1-(quinoxalin-5-yl)ethoxy)-1H-indazol-3-yl)-1H-pyrazol-1-yl)piperidine-1-carbonitrile], in that order: 10 to 100 nM, 10 to 100 nM, 1 to 10 nM, “A (A represents 1 ≤ multiple X<20)” and “A (A represents 1 ≤ multiple X<20)”.
As for `CC(Oc1ccc2[nH]nc(-c3cnn(C4CCN(S(C)(=O)=O)CC4)c3)c2c1)c1cccc2nccnc12` (centres unmarked) [Example 163, 5-(1-((3-(1-(1-(methylsulfonyl)piperidin-4-yl)-1H-pyrazol-4-yl)-1-indazol-5-yl)oxy)ethyl)quinoxaline], the IC50 at FGFR2 lay within 10 to 100 nM; against FGFR1 it was 10 to 100 nM; on FGFR3, 1 to 10 nM. Further, the “Selectivity (X) FGFR1/FGFR3” value on FGFR3 is on record as “A (A represents 1 ≤ multiple X<20)”. Further, the “Selectivity (X) FGFR2/FGFR3” value at FGFR3 is “A (A represents 1 ≤ multiple X<20)”.
Take `CC(Oc1ccc2[nH]nc(-c3cnn(CCCS(C)(=O)=O)c3)c2c1)c1cccc2nccnc12` (centres unmarked) [Example 181, 5-(1-((3-(1-(3-(methylsulfonyl)propyl)-1H-pyrazol-4-yl)-1H-indazol-5-yl)oxy)ethyl)quinoxaline]: the IC50 on FGFR4 is 10 to 100 nM; on FGFR1 (setting [2]), 10 to 100 nM; at FGFR3 (setting [3]), less than 1 nM. Also, the “Selectivity (X) FGFR1/FGFR3” value on FGFR3 is recorded as “A (A represents 1 ≤ multiple X<20)”. The “Selectivity (X) FGFR4/FGFR3” value on FGFR3 is given as “A (A represents 1 ≤ multiple X<20)”.
As for `CNC1CC(n2cc(-c3n[nH]c4ccc(OC(C)c5cccc6nccnc56)cc34)cn2)C1` (centres unmarked) [Example 182, N-methyl-3-(4-(5-(1-(quinoxalin-5-yl)ethoxy)-1H-indazol-3-yl)-1H-pyrazol-1-yl)c yclobutan-1-amine], the concentration for half-maximal inhibition (IC50) at FGFR4 lay in the range of 10 to 100 nM; at FGFR1 (setting [2]) it was 10 to 100 nM; at FGFR3 (setting [3]) it was 1 to 10 nM. Besides, the “Selectivity (X) FGFR1/FGFR3” value at FGFR3 is “A (A represents 1 ≤ multiple X<20)”. Besides, the “Selectivity (X) FGFR4/FGFR3” value at FGFR3 is recorded as “A (A represents 1 ≤ multiple X<20)”.
Consider `CC(Oc1ccc2[nH]nc(-c3cnn(C)c3)c2c1)c1cccn2ncc(F)c12` (centres unmarked) [Example 184, 5-(1-(3-fluoropyrazolo[1,5-a]pyridin-4-yl)ethoxy)-3-(1-methyl-1H-pyrazol-4-yl)-1H-indazole], for which the figures for the IC50 on FGFR4, on FGFR1 (setting [2]) and at FGFR3 (setting [3]) were 1 to 10 nM, 10 to 100 nM and less than 1 nM, respectively. The “Selectivity (X) FGFR1/FGFR3” value on FGFR3 was “B (B represents 20 ≤ multiple X<50)”. Moreover, the “Selectivity (X) FGFR4/FGFR3” value on FGFR3 is recorded as “A (A represents 1 ≤ multiple X<20)”.
Consider `CC(Oc1ccc2[nH]nc(-c3cnn(CCCS(C)(=N)=O)c3)c2c1)c1cc(F)cc2nccnc12` (centres unmarked) [Example 185], for which the IC50 at FGFR4 is 10 to 100 nM; at FGFR1 (setting [2]), 10 to 100 nM; at FGFR3 (setting [3]) it was less than 1 nM. In addition, the “Selectivity (X) FGFR1/FGFR3” value at FGFR3 is given as “B (B represents 20 ≤ multiple X<50)”. Also, at FGFR3, the “Selectivity (X) FGFR4/FGFR3” value is “B (B represents 20 ≤ multiple X<50)”.
